Measured values taken from PMC7922224, “Searching for Small Molecules as Antibacterials: Non-Cytotoxic Diarylureas Analogues of Triclocarban” (Antibiotics, 2021).
Converted amounts (≈) assume the structure as drawn.

Key:
S. aureus ATCC 29213 = test: MIC by broth microdilution (CLSI); format: cell-based, Staphylococcus aureus; conditions: Staphylococcus aureus, ATCC29213; Gram-positive; 37 °C, 24 h, Mueller Hinton Broth
Method: (§1) The in vitro Minimum Inhibitory Concentrations (MICs, μg/mL) were determined by the broth microdilution method according to the Clinical Laboratory Standards Institute (CLSI) guidelines. MIC values were recorded as the lowest concentration of compounds at which there was no optically detectable microorganism growth and evaluated by comparing the growth in each well visually with that of the growth in the control well for bacteria. All compounds were dissolved in dimethyl sulfoxide (DMSO) and were tested in a final concentration range of from 512 to 2 µg/mL. MICs for the reference antibiotic norfloxacin against quality control strains were used to confirm the validity of the screen. According to the CLSI guidelines, diphenylureas were tested in vitro against a panel of Gram-positive and Gram-negative bacteria belonging to the ATCC collection using the standard microdilution test for the determination of MICs. MICs of the synthesised compounds along with the parent compound TCC and with the standard antibiotic norfloxacin are listed in Table 1. The compounds were also analyzed in terms of molecular mass, logP (Table 1), number of hydrogen-bond donors and number of hydrogen-bond acceptors, and most of them obeyed Lipinski’s rule. […] Based on our results, it seems that the 3,4-dichloro-disubstitution pattern, which is present in TCC, is not crucial for activity. […] Moreover, the activity against Enterococcus faecalis was interesting. E. faecalis is a ubiquitous member of the healthy human gut microbiota and also a common opportunistic pathogen and leading cause of nosocomial infections. It has a high incidence for most infections, and the case numbers have been increasing in recent decades, likely due to its greater ability to persist in healthcare facilities and its higher abundance in the human gut microbiome. Kim et al. (2016) compared the bactericidal effects of plain and antibacterial soap containing 0.3% TCC. The authors found no significative difference between the effects of plain and medicated soap at either temperature, with the only exception of E. faecalis ATCC 19433 at 40 °C.
(§2) MICs (μg/mL) were determined by the broth microdilution method, using 96-well plates, according to CLSI [26]. Stock solutions of the investigated compounds were obtained by setting the concentration at the maximum possible value. Then, the stock solutions were diluted 1:10 with Mueller Hinton Broth (Oxoid, Italy). Afterwards, twofold serial dilutions in the suitable test medium were carried out to obtain a set of concentrations from 512 to 2 µg/mL in the wells. To obtain the stock solution, DMSO (100%) was employed as diluent. The following bacteria strains, available as freeze-dried discs, belonging to the ATCC collection, were used: Gram-positive: S. aureus ATCC 29213, 6538, and 6538P, E. faecalis ATCC 29212; Gram-negative: K. pneuomoniae ATCC 13883, P. aeruginosa ATCC 27853. To conserve the purity of cultures and to enable their reproducibility, cryovials of all microbial strains in the medium were set up and stored at −80 °C. Pre-cultures of each bacterial strain were prepared in Mueller Hinton Broth (MHB) and incubated at 37 °C for 3–5 h. The turbidity of bacterial cell suspension was calibrated to 0.5 McFarland Standard by the spectrophotometric method (OD 625 nm 0.08–0.10), as indicated in the CLSI protocol M7-A9 and, further, the standardized suspension was diluted (1:100) with MHB to reach 1–2 × 10^6 CFU/mL. All wells were seeded with 100 µl of the mentioned final inoculum, and some wells contained only inoculated broth as control growth. […] The MICs were determined by using the assay repeated twice in triplicate. Throughout the study, norfloxacin was used as reference antibiotic. Appropriate controls involved norfloxacin for bacteria as international reference standard. […]

S. aureus ATCC 6538P = test: MIC by broth microdilution (CLSI); format: cell-based, Staphylococcus aureus; conditions: Staphylococcus aureus, ATCC6538P; Gram-positive; 37 °C, 24 h, Mueller Hinton Broth
Method: as §1, §2

S. aureus ATCC 6538 = test: MIC by broth microdilution (CLSI); format: cell-based, Staphylococcus aureus; conditions: Staphylococcus aureus, ATCC6538; Gram-positive; 37 °C, 24 h, Mueller Hinton Broth
Method: as §1, §2

E. faecalis ATCC 29212 = test: MIC by broth microdilution (CLSI); format: cell-based, Enterococcus faecalis; conditions: Enterococcus faecalis, ATCC29212; Gram-positive; 37 °C, 24 h, Mueller Hinton Broth; read-out: MIC E.f. 29212
Method: as §1, §2

E. coli 25922 = test: MIC by broth microdilution (CLSI); format: cell-based; conditions: Escherichia coli, Gram-negative, 37 °C, 24 h, Mueller Hinton Broth
K. pneumoniae ATCC 13883 = test: MIC by broth microdilution (CLSI); format: cell-based; conditions: Klebsiella pneumoniae, ATCC13883; Gram-negative; 37 °C, 24 h, Mueller Hinton Broth; read-out: MIC K.p. 13883
Method: as §1, §2

P. aeruginosa ATCC 27853 = test: MIC by broth microdilution (CLSI); format: cell-based; conditions: Pseudomonas aeruginosa, ATCC27853; Gram-negative; 37 °C, 24 h, Mueller Hinton Broth
Method: as §1, §2

Staphylococcus aureus = test: MIC by broth microdilution, S. aureus (strain not given); format: cell-based; conditions: strain not specified (best value among the ATCC strains), read-out: MIC against S. aureus
Method: as §1, §2

Compound: COc1ccc(NC(=O)Nc2ccc(Cl)c(Cl)c2)cc1 [1de, 1-(3,4-Dichlorophenyl)-3-(4-methoxyl)phenylurea]
- MIC (S. aureus ATCC 29213): 128 µg/mL (≈ 411 µM)
- MIC (S. aureus ATCC 6538P): 64 µg/mL (≈ 206 µM)
- MIC (S. aureus ATCC 6538): 64 µg/mL (≈ 206 µM)
- MIC (E. faecalis ATCC 29212): 64 µg/mL (≈ 206 µM)
- MIC (E. coli 25922): > 256 µg/mL
- MIC (K. pneumoniae ATCC 13883): > 256 µg/mL
- MIC (P. aeruginosa ATCC 27853): > 256 µg/mL

Compound: COc1ccc(NC(=O)Nc2ccccc2)cc1 [1df, 1-(4-Methoxyphenyl)-3-phenylurea]
- MIC (S. aureus ATCC 29213): 256 µg/mL (≈ 1060 µM)
- MIC (S. aureus ATCC 6538P): 128 µg/mL (≈ 528 µM)
- MIC (S. aureus ATCC 6538): 64 µg/mL (≈ 264 µM)
- MIC (E. faecalis ATCC 29212): 128 µg/mL (≈ 528 µM)
- MIC (E. coli 25922): > 256 µg/mL
- MIC (K. pneumoniae ATCC 13883): > 256 µg/mL
- MIC (P. aeruginosa ATCC 27853): 256 µg/mL (≈ 1060 µM)

Compound: O=C(Nc1ccccc1)Nc1ccc(Cl)c(Cl)c1 [1ef, 1-(3,4-Dichlorophenyl)-3-phenylurea]
- MIC (S. aureus ATCC 29213): 256 µg/mL (≈ 911 µM)
- MIC (S. aureus ATCC 6538P): 128 µg/mL (≈ 455 µM)
- MIC (S. aureus ATCC 6538): 16 µg/mL (≈ 56.9 µM)
- MIC (E. faecalis ATCC 29212): 128 µg/mL (≈ 455 µM)
- MIC (E. coli 25922): > 256 µg/mL
- MIC (K. pneumoniae ATCC 13883): > 256 µg/mL
- MIC (P. aeruginosa ATCC 27853): 256 µg/mL (≈ 911 µM)
- MIC (Staphylococcus aureus): 16 µg/mL (≈ 56.9 µM)

Compound: Cc1ccccc1NC(=O)Nc1ccc(Cl)c(Cl)c1 [1eg, 1-(3,4-Dichlorophenyl)-3-(2-methylphenyl)urea]
- MIC (S. aureus ATCC 29213): 256 µg/mL (≈ 867 µM)
- MIC (S. aureus ATCC 6538P): 128 µg/mL (≈ 434 µM)
- MIC (S. aureus ATCC 6538): 64 µg/mL (≈ 217 µM)
- MIC (E. faecalis ATCC 29212): 64 µg/mL (≈ 217 µM)
- MIC (E. coli 25922): > 256 µg/mL
- MIC (K. pneumoniae ATCC 13883): > 256 µg/mL
- MIC (P. aeruginosa ATCC 27853): > 256 µg/mL

Compound: O=C(Nc1ccccc1)Nc1ccccc1 [1ff (NCC), 1,3-Diphenylurea]
- MIC (S. aureus ATCC 29213): > 256 µg/mL
- MIC (S. aureus ATCC 6538P): 64 µg/mL (≈ 302 µM)
- MIC (S. aureus ATCC 6538): 128 µg/mL (≈ 603 µM)
- MIC (E. faecalis ATCC 29212): > 256 µg/mL
- MIC (E. coli 25922): > 256 µg/mL
- MIC (K. pneumoniae ATCC 13883): > 256 µg/mL
- MIC (P. aeruginosa ATCC 27853): > 256 µg/mL

Compound: Cc1ccccc1NC(=O)Nc1ccccc1 [1fg, 1-(2-Methylphenyl)-3-phenylurea]
- MIC (S. aureus ATCC 29213): 256 µg/mL (≈ 1130 µM)
- MIC (S. aureus ATCC 6538P): 16 µg/mL (≈ 70.7 µM)
- MIC (S. aureus ATCC 6538): 32 µg/mL (≈ 141 µM)
- MIC (E. faecalis ATCC 29212): 64 µg/mL (≈ 283 µM)
- MIC (E. coli 25922): > 256 µg/mL
- MIC (K. pneumoniae ATCC 13883): 256 µg/mL (≈ 1130 µM)
- MIC (P. aeruginosa ATCC 27853): > 256 µg/mL
- MIC (Staphylococcus aureus): 16 µg/mL (≈ 70.7 µM)
- melting point: 241 to 242 °C

Compound: O=C(Nc1ccccc1)Nc1ccc(F)c(F)c1 [1fj, 1-(3,4-Difluorophenyl)-3-phenylurea]
- MIC (S. aureus ATCC 29213): 256 µg/mL (≈ 1030 µM)
- MIC (S. aureus ATCC 6538P): 64 µg/mL (≈ 258 µM)
- MIC (S. aureus ATCC 6538): 128 µg/mL (≈ 516 µM)
- MIC (E. faecalis ATCC 29212): 128 µg/mL (≈ 516 µM)
- MIC (K. pneumoniae ATCC 13883): 256 µg/mL (≈ 1030 µM)
- MIC (P. aeruginosa ATCC 27853): 256 µg/mL (≈ 1030 µM)
- melting point: 213 to 214 °C

Compound: Cc1ccccc1NC(=O)Nc1ccccc1Cl [1gh, 1-(2-Chlorophenyl)-3-(2-methylphenyl)urea]
- MIC (S. aureus ATCC 29213): 256 µg/mL (≈ 982 µM)
- MIC (S. aureus ATCC 6538P): 32 µg/mL (≈ 123 µM)
- MIC (S. aureus ATCC 6538): 32 µg/mL (≈ 123 µM)
- MIC (E. faecalis ATCC 29212): 256 µg/mL (≈ 982 µM)
- MIC (E. coli 25922): > 256 µg/mL
- MIC (K. pneumoniae ATCC 13883): > 256 µg/mL
- MIC (P. aeruginosa ATCC 27853): > 256 µg/mL
- MIC (Staphylococcus aureus): 32 µg/mL (≈ 123 µM)
- melting point: 223 to 224 °C

Compound: Cc1ccccc1NC(=O)Nc1ccc(F)c(F)c1 [1gj, 1-(3,4-Difluorophenyl)-3-(2-methylphenyl)urea]
- MIC (S. aureus ATCC 29213): > 256 µg/mL
- MIC (S. aureus ATCC 6538P): 128 µg/mL (≈ 488 µM)
- MIC (S. aureus ATCC 6538): 64 µg/mL (≈ 244 µM)
- MIC (E. faecalis ATCC 29212): 64 µg/mL (≈ 244 µM)
- MIC (E. coli 25922): > 256 µg/mL
- MIC (K. pneumoniae ATCC 13883): > 256 µg/mL
- MIC (P. aeruginosa ATCC 27853): > 256 µg/mL

Compound: Cc1ccccc1NC(=O)Nc1ccccc1F [1gl, 1-(2-Metylphenyl)-3-(2-fluorophenyl)urea]
- MIC (S. aureus ATCC 29213): 128 µg/mL (≈ 524 µM)
- MIC (S. aureus ATCC 6538P): 32 µg/mL (≈ 131 µM)
- MIC (S. aureus ATCC 6538): 64 µg/mL (≈ 262 µM)
- MIC (E. faecalis ATCC 29212): 128 µg/mL (≈ 524 µM)
- MIC (E. coli 25922): > 256 µg/mL
- MIC (K. pneumoniae ATCC 13883): > 256 µg/mL
- MIC (P. aeruginosa ATCC 27853): > 256 µg/mL
- MIC (Staphylococcus aureus): 32 µg/mL (≈ 131 µM)
- melting point: 224 to 225 °C
